The values below come from patent US9404081B2, “Pyruvate kinase activators for use in therapy” (AGIOS PHARMACEUTICALS, INC., priority 2011, dated 2016).

Type in all cases: biochemical
For test [1], the target named is PKR T384W (Homo sapiens, UniProt P30613, T384W). Briefly: PKR T384W Single Point Percent Activation Assay. Conditions: read-out: Act. % 384W. As to the method:
PKR T384W Single Point Percent Activation Assay
A compound described herein was diluted with DMSO and tested at 1 μM concentration. The enzyme was diluted in 1× Buffer: (100 mM KCl, 50 mM Tris 7.5, 5 mM MgCl2, 1 mM DTT, 0.03% BSA). 2 μL of compound solution was first added into wells, and then 180 μL enzyme solution was added. Assays were assembled except for ADP, and plates were stored for 60 minutes at RT. 20 μL ADP was added to start the assay and assay output was evaluated using OD340 at SpectraMax. The assay was run at room temperature.
Final concentration: PKR T384W soluble (300 ng/well), Tris pH 7.5 (50 mM), KCl (100 mM), MgCl2 (5 mM), ADP (0.08 mM), PEP (0.23 mM), NADH (180 μM), LDH (0.5 units, Sigma 59023), DTT (1 mM) and BSA (0.03%).

The target in test [2] is PKR R510Q (Homo sapiens, UniProt P30613, R510Q). Nature of the test: PKR R510Q Single Point Percent Activation Assay. Conditions: read-out: Act. % 510Q. As for the experimental part:
PKR R510Q Single Point Percent Activation Assay
(§1) A compound described herein was diluted with DMSO and tested at 1 μM concentration. The enzyme was diluted in 1× Buffer: (100 mM KCl, 50 mM Tris 7.5, 5 mM MgCl2, 1 mM DTT, 0.03% BSA). 2 μL of compound solution was first added into wells, and then 180 μL of enzyme solution was added. Assays were assembled except for ADP, and plates were stored for 60 minutes at RT. 20 μL ADP was added to start the assay and assay output was evaluated using OD340 at SpectraMax. The assay was run at room temperature.
Final concentration: PKR R510Q (40 ng/well), Tris pH 7.5 (50 mM), KCl (100 mM), MgCl2 (5 mM), ADP (0.2 mM), PEP (0.11 mM), NADH (180 μM), LDH (0.5 units, Sigma 59023), DTT (1 mM) and BSA (0.03%).

Test [3] concerns the target PKR wt (Homo sapiens, UniProt P30613). Nature of the test: PKR WT Single Point Percent Activation Assay. As to the method:
PKR WT Single Point Percent Activation Assay
as §1
Final concentration: PKR wt (100 ng/well), Tris pH 7.5 (50 mM), KCl (100 mM), MgCl2 (5 mM), ADP (0.48 mM), PEP (0.15 mM), NADH (180 μM), LDH (0.5 units, Sigma 59023), DTT (1 mM) and BSA (0.03%).

The target of test [4] is PKR R532W (Homo sapiens, UniProt P30613, R532W). Briefly: PKR R532W Single Point Percent Activation Assay. Conditions: read-out: Act, % 532W. As for the experimental part: PKR R532W Single Point Percent Activation Assay
Sequence of PKR R532W (P30613 whole entry R532W): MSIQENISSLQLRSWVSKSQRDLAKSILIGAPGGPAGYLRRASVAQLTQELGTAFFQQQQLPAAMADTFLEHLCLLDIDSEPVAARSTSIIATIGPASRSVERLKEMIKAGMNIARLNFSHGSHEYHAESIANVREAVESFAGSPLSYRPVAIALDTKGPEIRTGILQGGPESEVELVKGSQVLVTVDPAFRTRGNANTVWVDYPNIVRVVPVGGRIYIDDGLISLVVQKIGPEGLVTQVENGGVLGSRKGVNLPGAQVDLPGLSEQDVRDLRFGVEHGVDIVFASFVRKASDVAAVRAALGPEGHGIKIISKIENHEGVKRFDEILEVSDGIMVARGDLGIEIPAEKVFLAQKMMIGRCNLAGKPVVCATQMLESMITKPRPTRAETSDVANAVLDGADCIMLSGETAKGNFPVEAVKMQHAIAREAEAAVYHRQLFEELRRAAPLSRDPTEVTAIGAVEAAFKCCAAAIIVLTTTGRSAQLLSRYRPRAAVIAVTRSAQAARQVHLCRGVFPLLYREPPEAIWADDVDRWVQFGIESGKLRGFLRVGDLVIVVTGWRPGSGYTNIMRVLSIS
as §1
Final concentration: PKR R532W (100 ng/well), Tris pH 7.5 (50 mM), KCl (100 mM), MgCl2 (5 mM), ADP (0.36 mM), PEP (0.1 mM), NADH (180 μM), LDH (0.5 units, Sigma 59023), DTT (1 mM) and BSA (0.03%).

Sequence of PKR wt (P30613 whole entry): as the sequence (P30613 whole entry R532W) above, with W532R counted along it
Sequence of PKR R510Q (P30613 whole entry R510Q): as the sequence (P30613 whole entry R532W) above, with R510Q, W532R counted along it
Sequence of PKR T384W (P30613 whole entry T384W): as the sequence (P30613 whole entry R532W) above, with T384W, W532R counted along it

On to `C[C@@H]1CN(Cc2ccc(F)c(F)c2F)CCN1C(=O)c1ccc(NS(=O)(=O)c2cccc3cccnc23)cc1`, for which the activation at 1 µM in test [1] was in the range of 101 to 500%; in test [2], 101 to 500%; in test [3], 1 to 100%; in test [4] it was 1 to 100%.
As to `C[C@@H]1CN(CC2CCOC2)CCN1C(=O)c1ccc(NS(=O)(=O)c2cccc3cccnc23)cc1` (some centres unmarked), the activation at 1 µM in test [1], in test [2], in test [3] and in test [4] was 101 to 500% in each case.
Regarding `O=C(c1ccc(NS(=O)(=O)c2cccc3cccnc23)cc1)N1CC2CCC(C1)N2Cc1ccc(F)cc1`, the activation at 1 µM in test [1] was in the range of 1 to 100%; in test [2], 101 to 500%; in test [3] it was 101 to 500%; in test [4] it was 1 to 100%.
As to `CC(C)[C@H]1CN(C(C)c2ccc(F)cc2)CCN1C(=O)c1ccc(NS(=O)(=O)c2cccc3cccnc23)cc1` (some centres unmarked), the activation at 1 µM in test [1] was in the range of 101 to 500%; in test [2], 1 to 100%; in test [3], 101 to 500%; in test [4], 101 to 500%.
On to `C[C@H]1CN(CC2CCCC2)CCN1C(=O)c1ccc(NS(=O)(=O)c2cccc3cccnc23)cc1`, for which the activation at 1 µM in test [1] lay within 101 to 500%; in test [2], 101 to 500%; in test [3], 101 to 500%; in test [4], 1 to 100%.
With `CC(c1cc(F)c(F)c(F)c1)N1CCN(C(=O)c2ccc(NS(=O)(=O)c3cccc4cccnc34)cc2)[C@H](C)C1` (some centres unmarked), the activation at 1 µM was in the range of 101 to 500% in test [1], 101 to 500% in test [2], 1 to 100% in test [3] and 1 to 100% in test [4].
As to `C[C@H]1CN(CC2CCOC2)CCN1C(=O)c1ccc(NS(=O)(=O)c2cccc3cccnc23)cc1` (some centres unmarked), the activation at 1 µM in test [1] lay in the range of 1 to 100%; in test [2], 101 to 500%; in test [3] it was 101 to 500%; in test [4], 1 to 100%.
As for `C[C@@H]1CN(C(=O)c2ccc(NS(=O)(=O)c3cccc4cccnc34)cc2)C[C@H](C)N1C(=O)c1ccccn1`, the activation at 1 µM in test [1], in test [2], in test [3] and in test [4] was 101 to 500% throughout.
`C[C@@H]1CN(C(=O)OCCC2CCCCC2)CCN1C(=O)c1ccc(NS(=O)(=O)c2cccc3cccnc23)cc1`: the activation at 1 µM in test [1], in test [2], in test [3] and in test [4] was 1 to 100% each time.
`C[C@H]1CN(Cc2c(F)cc(F)cc2F)CCN1C(=O)c1ccc(NS(=O)(=O)c2cccc3cccnc23)cc1Cl`: the activation at 1 µM was in the range of 101 to 500% in test [1], 101 to 500% in test [2], 101 to 500% in test [3] and 1 to 100% in test [4].
In the case of `CC1CN(Cc2cc(F)c(F)c(F)c2)CC(C)N1C(=O)c1ccc(NS(=O)(=O)c2cccc3cccnc23)cc1` (centres unmarked), the activation at 1 µM lay in the range of 1 to 100% in test [1], 1 to 100% in test [2], 1 to 100% in test [3] and 101 to 500% in test [4].
Take `C[C@@H]1CN(CC2CCCCC2)CCN1C(=O)c1ccc(NS(=O)(=O)c2cccc3cccnc23)cc1`: the activation at 1 µM lay in the range of 1 to 100% in test [1], 101 to 500% in test [2], 101 to 500% in test [3] and 101 to 500% in test [4].
In the case of `CC(C)[C@H]1CN(Cc2cc(F)cc(F)c2)CCN1C(=O)c1ccc(NS(=O)(=O)c2cccc3cccnc23)cc1`, the activation at 1 µM in test [1] was in the range of 101 to 500%; in test [2], 1 to 100%; in test [3] it was 1 to 100%; in test [4] it was 1 to 100%.
For the molecule `CC(C)[C@H]1CN(Cc2ccc(F)cc2)CCN1C(=O)c1ccc(NS(=O)(=O)c2cccc3cccnc23)cc1`, the activation at 1 µM lay in the range of 101 to 500% in test [1], 1 to 100% in test [2], 1 to 100% in test [3] and 1 to 100% in test [4].
In the case of `CC(C)COC(=O)N1[C@H](C)CN(C(=O)c2ccc(NS(=O)(=O)c3cccc4cccnc34)cc2)C[C@@H]1C`, the activation at 1 µM in test [1] lay within 101 to 500%; in test [2], 101 to 500%; in test [3] it was 101 to 500%; in test [4], 1 to 100%.
With `O=C1CN(Cc2cc(F)cc(F)c2)CCN1C(=O)c1ccc(NS(=O)(=O)c2cccc3cccnc23)cc1`, the activation at 1 µM in test [1] is 101 to 500%; in test [2] it was 1 to 100%; in test [3] it was 101 to 500%; in test [4], 101 to 500%.
As to `C[C@H]1CN(CC2CCCC2)CCN1C(=O)c1ccc(NS(=O)(=O)c2cccc3cccnc23)cc1Cl`, the activation at 1 µM in test [1], in test [2], in test [3] and in test [4] was 1 to 100% each time.
For `C[C@@H]1CN(Cc2cc(F)cc(F)c2F)CCN1C(=O)c1ccc(NS(=O)(=O)c2cccc3cccnc23)cc1`, the activation at 1 µM in test [1] lay within 1 to 100%; in test [2] it was 1 to 100%; in test [3], 1 to 100%; in test [4], 101 to 500%.
Regarding `C[C@H]1CN(CC2CC2)CCN1C(=O)c1ccc(NS(=O)(=O)c2cccc3cccnc23)cc1Cl`, the activation at 1 µM in test [1], in test [2], in test [3] and in test [4] was 1 to 100% throughout.
Turning to `C[C@H]1CN(C(=O)c2ccc(NS(=O)(=O)c3cccc4cccnc34)cc2)CCN1C(=O)c1ccccn1`, the activation at 1 µM in test [1] is 101 to 500%; in test [2] it was 1 to 100%; in test [3], 101 to 500%; in test [4], 101 to 500%.
Regarding `CC[C@H]1CN(Cc2ccc(F)cc2)CCN1C(=O)c1ccc(NS(=O)(=O)c2cccc3cccnc23)cc1`, the activation at 1 µM in test [1] fell in the range of 101 to 500%; in test [2] it was 1 to 100%; in test [3] it was 101 to 500%; in test [4] it was 101 to 500%.
For `C[C@H]1CN(Cc2ccc(F)cc2)CCN1C(=O)c1ccc(NS(=O)(=O)c2cccc3cccnc23)cc1`, the activation at 1 µM lay within 101 to 500% in test [1], 101 to 500% in test [2], 101 to 500% in test [3] and 1 to 100% in test [4].
For `C[C@@H]1CN(C(=O)OCC2CCCO2)CCN1C(=O)c1ccc(NS(=O)(=O)c2cccc3cccnc23)cc1` (some centres unmarked), the activation at 1 µM in test [1] is 1 to 100%; in test [2], 1 to 100%; in test [3], 101 to 500%; in test [4], 1 to 100%.
Consider `CCOC(=O)N1[C@H](C)CN(C(=O)c2ccc(NS(=O)(=O)c3cccc4cccnc34)cc2)C[C@@H]1C`, for which the activation at 1 µM in test [1], in test [2], in test [3] and in test [4] was 101 to 500% throughout.
With `C[C@H]1CN(CC2CCOC2)CCN1C(=O)c1ccc(NS(=O)(=O)c2cccc3cccnc23)cc1Cl` (some centres unmarked), the activation at 1 µM lay in the range of 101 to 500% in test [1], 1 to 100% in test [2], 1 to 100% in test [3] and 101 to 500% in test [4].
Turning to `C[C@@H]1CN(C(=O)OCCC2CCCC2)CCN1C(=O)c1ccc(NS(=O)(=O)c2cccc3cccnc23)cc1`, the activation at 1 µM in test [1], in test [2], in test [3] and in test [4] was 1 to 100% each time.
Turning to `C[C@@H]1CN(C(=O)OCC2CC2)CCN1C(=O)c1ccc(NS(=O)(=O)c2cccc3cccnc23)cc1`, the activation at 1 µM was in the range of 1 to 100% in test [1], 1 to 100% in test [2], 1 to 100% in test [3] and 101 to 500% in test [4].
Turning to `CC(c1cc(F)cc(F)c1)N1CCN(C(=O)c2ccc(NS(=O)(=O)c3cccc4cccnc34)cc2)[C@H](C)C1` (some centres unmarked), the activation at 1 µM in test [1], in test [2], in test [3] and in test [4] was 101 to 500% each time.
On to `O=C(c1ccc(NS(=O)(=O)c2cccc3cccnc23)cc1)N1CCn2c(nnc2-c2cc(F)cc(F)c2)C1`, for which the activation at 1 µM in test [1], in test [2], in test [3] and in test [4] was 101 to 500% each time.
